Reference: ChEMBL document CHEMBL4177727, “Synthesis and biological evaluation of 1-amino isochromans from 2-bromoethyl benzaldehyde and amines in acid medium” (2018)

How the values were obtained:
Type in all cases: functional
Details in all cases: read-out: IZ
Escherichia coli = assay: Antibacterial activity against Escherichia coli MTCC 443 at 1 ug/ml under overnight incubation condition by paper disc method
Pseudomonas aeruginosa = assay: Antibacterial activity against Pseudomonas aeruginosa MTCC 424 at 1 ug/ml under overnight incubation condition by paper disc method
Staphylococcus aureus = assay: Antibacterial activity against Staphylococcus aureus MTCC 96 at 1 ug/ml under overnight incubation condition by paper disc method
Bacillus subtilis = assay: Antibacterial activity against Bacillus subtilis MTCC 441 at 1 ug/ml under overnight incubation condition by paper disc method

| SMILES | zone of inhibition at 1 µg/mL (Escherichia coli) [mm] | zone of inhibition at 1 µg/mL (Pseudomonas aeruginosa) [mm] | zone of inhibition at 1 µg/mL (Staphylococcus aureus) [mm] | zone of inhibition at 1 µg/mL (Bacillus subtilis) [mm] |
| --- | --- | --- | --- | --- |
| Cc1cc(Br)cnc1NCCc1ccccc1C=O | 3.5 | 5 | 4 | 3 |
| c1ccc2c(c1)CCOC2Nc1nc2ccccc2s1 (stereo not given) | 2.5 | 3 | 3 | 2.5 |
| Ic1ccc(NC2OCCc3ccccc32)nc1 (stereo not given) | 3.5 | 4.5 | 3 | 6 |
| Fc1ccc2nc(NC3OCCc4ccccc43)sc2c1 (stereo not given) | 4 | 3 | 2.5 | 4.5 |
| FC(F)(F)c1ccc2nc(NC3OCCc4ccccc43)sc2c1 (stereo not given) | 2.5 | 2.5 | 2.5 | 2.5 |
| O=[N+]([O-])c1ccc(NC2OCCc3ccccc32)cc1 (stereo not given) | 4.5 | 4 | 3 | 5 |
| Brc1ccc2nc(NC3OCCc4ccccc43)sc2c1 (stereo not given) | 2.5 | 5 | 5 | 2.5 |
| CCOc1ccc2nc(NC3OCCc4ccccc43)sc2c1 (stereo not given) | 6.5 | 5 | 6 | 7.5 |
| Fc1nc(NC2OCCc3ccccc32)sc1F (stereo not given) | 3 | 4 | 3 | 3 |
| Fc1ccc(-c2cnc(NC3OCCc4ccccc43)s2)cc1 (stereo not given) | 6 | 5 | 3 | 2.5 |
| Cc1cccc(NC2OCCc3ccccc32)n1 (stereo not given) | 3 | 6 | 4.5 | 4 |
| Cc1nc(NC2OCCc3ccccc32)sc1-c1ccccc1 (stereo not given) | 2.5 | 3 | 2.5 | 2.5 |
| COc1cccc2sc(NC3OCCc4ccccc43)nc12 (stereo not given) | 3 | 4 | 2.5 | 3 |
| Cc1ccc2nc(NC3OCCc4ccccc43)sc2c1 (stereo not given) | 2.5 | 2.5 | 2.5 | 2.5 |
| CCn1cc(C(=O)O)c(=O)c2cc(F)c(N3CCNCC3)cc21 [NORFLOXACIN] |  | 9.5 | 7 |  |
| CC1COc2c(N3CCN(C)CC3)c(F)cc3c(=O)c(C(=O)O)cn1c23 (stereo not given) [OFLOXACIN] | 11 |  |  | 10 |
